Tests used:
STAT5b = biological target: T1, STAT5b (Homo sapiens, UniProt P51692); test: Competitive fluorescence polarization (FP) binding assay, STAT5b SH2 domain; settings: FP assay; for Ki: Ki calculated from IC50 (n=3) via published equation; for Ki / IC50: 2 % DMSO (10 % DMSO for 10); for IC50: n=3
T1 sequence (P51692 1-787): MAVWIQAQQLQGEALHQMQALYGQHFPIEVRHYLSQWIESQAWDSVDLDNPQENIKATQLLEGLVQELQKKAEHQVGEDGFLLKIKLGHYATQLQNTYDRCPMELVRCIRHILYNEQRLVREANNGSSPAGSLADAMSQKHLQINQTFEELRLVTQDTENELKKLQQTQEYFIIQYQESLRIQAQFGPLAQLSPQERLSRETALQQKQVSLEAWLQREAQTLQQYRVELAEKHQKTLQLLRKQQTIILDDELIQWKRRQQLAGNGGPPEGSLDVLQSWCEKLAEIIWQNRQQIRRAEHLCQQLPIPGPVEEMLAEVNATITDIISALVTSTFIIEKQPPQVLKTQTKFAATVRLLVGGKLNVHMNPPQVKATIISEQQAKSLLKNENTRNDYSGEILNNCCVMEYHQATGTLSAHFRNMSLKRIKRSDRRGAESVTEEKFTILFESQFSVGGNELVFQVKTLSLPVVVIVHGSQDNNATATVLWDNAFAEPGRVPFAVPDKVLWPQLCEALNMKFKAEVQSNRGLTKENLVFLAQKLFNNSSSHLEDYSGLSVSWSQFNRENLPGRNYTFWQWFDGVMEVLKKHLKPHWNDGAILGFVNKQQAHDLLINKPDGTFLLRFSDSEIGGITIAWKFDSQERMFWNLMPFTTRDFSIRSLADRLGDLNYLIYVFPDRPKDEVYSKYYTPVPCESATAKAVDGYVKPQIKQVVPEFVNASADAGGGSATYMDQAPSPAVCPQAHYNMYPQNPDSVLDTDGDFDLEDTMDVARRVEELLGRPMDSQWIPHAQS
Description: (§1) Fluorescence polarization assays: Competitive binding assays based on fluorescence polarization were carried out essentially as previously described.[[4a]] Unless stated otherwise, final concentrations of the buffer components were: 10 mM Tris (pH 8.0), 50 mM NaCl, 1 mM EDTA, 1 mM DTT, 0.1 % (v/v) Nonidet P‐40 substitute, and 2 % DMSO. Proteins were used at concentrations which reflect the Kd values of the interactions between the fluoropeptide and the protein preparations. Protein concentrations used for activity analysis of compound 5 were 91 nM for STAT1, 107 nM for STAT3, 28 nM for STAT4, 122 nM for STAT5a, 56 nM for STAT5b and 101 nM for STAT6. Protein concentrations used for activity analysis of AC‐4‐130 were 103 nM for STAT5a and 62 nM for STAT5b. […] Final concentration of all fluorescent‐labelled peptides was 10 nM. The following peptides were used in assays: 5‐carboxyfluorescein‐GpYDKPHVL for STAT1; 5‐carboxyfluorescein‐GpYLPQTV‐NH2 for STAT3; 5‐carboxyfluorescein‐GpYLPQNID for STAT4; 5‐carboxyfluorescein‐GpYLVLDKW for STAT5a/5b, and 5‐carboxyfluorescein‐GpYVPWQDLI for STAT6. Protein and test compounds were incubated for 1 h prior to addition of the fluorescein‐labeled peptide. Fluorescence polarization was measured after another 60 min using an Infinite F500 plate reader (Tecan). IC50 values were converted to Ki‐values using the published equation.[13]

STAT5a = biological target: T2, STAT5a (Homo sapiens, UniProt P42229); test: Competitive fluorescence polarization (FP) binding assay, STAT5a SH2 domain; settings: FP assay; for Ki: Ki calculated from IC50 (n=3) via published equation; for Ki / IC50: 2 % DMSO (10 % DMSO for 10); for IC50: n=3 unless stated; for inhibition at 100 µM: the highest concentration tested, read-out: maximum inhibition at 100 µM (STAT5a)
T2 sequence (P42229 1-794): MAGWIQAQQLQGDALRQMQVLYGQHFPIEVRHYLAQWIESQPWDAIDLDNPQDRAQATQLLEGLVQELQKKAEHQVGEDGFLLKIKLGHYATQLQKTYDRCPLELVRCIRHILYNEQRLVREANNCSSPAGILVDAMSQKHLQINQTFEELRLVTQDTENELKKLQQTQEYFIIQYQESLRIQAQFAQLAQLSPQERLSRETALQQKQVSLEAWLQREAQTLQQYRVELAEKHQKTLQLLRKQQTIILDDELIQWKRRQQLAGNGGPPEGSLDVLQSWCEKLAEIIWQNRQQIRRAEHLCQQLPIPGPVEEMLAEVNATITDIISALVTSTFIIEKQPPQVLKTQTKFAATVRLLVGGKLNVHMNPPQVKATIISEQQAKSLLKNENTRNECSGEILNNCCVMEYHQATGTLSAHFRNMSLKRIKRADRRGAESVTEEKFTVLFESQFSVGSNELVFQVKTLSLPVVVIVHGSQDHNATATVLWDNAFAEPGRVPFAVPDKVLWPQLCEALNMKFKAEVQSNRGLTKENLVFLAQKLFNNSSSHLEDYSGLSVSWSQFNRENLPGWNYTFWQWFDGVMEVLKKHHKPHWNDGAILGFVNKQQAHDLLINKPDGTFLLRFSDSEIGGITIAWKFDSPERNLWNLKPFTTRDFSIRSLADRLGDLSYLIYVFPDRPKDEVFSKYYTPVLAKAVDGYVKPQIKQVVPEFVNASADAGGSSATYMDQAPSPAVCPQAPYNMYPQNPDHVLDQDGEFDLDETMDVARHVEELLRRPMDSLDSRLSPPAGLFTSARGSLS
Description: as §1

[1] = Solubility as observed during synthesis / stock preparation; type: physicochemical; settings: remark on synthesis

Structure (SMILES) | Ki (STAT5b) | IC50 (STAT5b) | Ki (STAT5a) | IC50 (STAT5a) | inhibition at 100 µM (STAT5a) | increase of activity against STAT5b relative to resorcinol bisphosphate (1) (STAT5b; ratio of Ki values) | solubility of the final product [1] | increase of activity against STAT5a relative to resorcinol bisphosphate (1) (STAT5a; ratio of Ki values) | inhibition at 100 µM (STAT5b; 100 µM, read-out: maximum inhibition at 100 µM (STAT5b))
O=P(O)(O)Oc1cccc(OP(=O)(O)O)c1 [compound 1, 1,3-Phenylene bis(dihydrogen phosphate)] | 20.4 ± 0.7 µM | 41.6 ± 1.4 µM | 23.3 ± 4.9 µM | 47.2 ± 9.9 µM | – | – | – | – | –
CC(=O)NCc1ccc(OP(=O)(O)O)cc1OP(=O)(O)O [compound 2] | 42.1 ± 1.6 µM | 85.7 ± 3.2 µM | – | – | 50 ± 3% | – | – | – | –
CC(=O)NCc1cc(OP(=O)(O)O)cc(OP(=O)(O)O)c1 [compound 3] | 18.7 ± 0.8 µM | 38.1 ± 1.6 µM | 36.4 ± 3.8 µM | 73.8 ± 7.7 µM | – | – | – | – | –
O=C(COc1ccc(C(=O)Nc2ccc(Oc3ccccc3)cc2)cc1)NCc1cc(OP(=O)(O)O)cc(OP(=O)(O)O)c1 [compound 4] | 0.9 ± 0.1 µM | 1.9 ± 0.3 µM | 2.5 ± 0.5 µM | 5.2 ± 1 µM | – | 23 fold | limited solubility | 9 fold | –
O=P(O)(O)Oc1ccc(F)c(OP(=O)(O)O)c1 [compound 6] | 27.4 ± 2.8 µM | 55.8 ± 5.6 µM | 29.4 ± 0.6 µM | 59.4 ± 1.2 µM | – | – | – | – | –
O=P(O)(O)Oc1cccc(OP(=O)(O)O)c1F [compound 7] | 7.6 ± 0.4 µM | 15.5 ± 0.8 µM | 10.8 ± 0.5 µM | 21.8 ± 0.9 µM | – | – | – | – | –
O=P(O)(O)Cc1cccc(CP(=O)(O)O)c1F [compound 8] | – | – | – | – | 12 ± 3% | – | – | – | 14 ± 1%
O=P(O)(O)C(F)(F)c1cccc(C(F)(F)P(=O)(O)O)c1F [compound 9] | 18.9 ± 1.5 µM | 38.4 ± 3 µM | 15 ± 0.6 µM | 30.7 ± 1.3 µM | – | – | – | – | –

Reference: article PMC10099813, “Stafiba: A STAT5‐Selective Small‐Molecule Inhibitor” (Chembiochem, 2022)
